Test results as given in US12410155B2, “Salt form and crystal form of tetrahydrocyclohepta indazole compound” (Zhejiang Yangli Pharmaceutical Technology Co., Ltd., priority 2021, dated 2025).

Tests used:
Assay type in all cases: cell-based
T-47D cells = assay: T-47D cell proliferation inhibition assay (CTG); settings: Homo sapiens, T47D, 1 nM estradiol
Description: (4) MCF-7, T-47D, and CAMA-1 Cell Proliferation Inhibition Assay
T-47D: RPMI-1640 (without phenol red) containing 10% charcoal-stripped serum (500 mL culture medium containing 450 mL RPMI-1640, 50 mL charcoal-stripped serum).
The inhibitory effect of the test compound of formula (I) on the proliferation of MCF-7, CAMA-1, and T-47D cells was analyzed. For MCF-7 cells, ten concentration gradients ranging from 100 nM to 0.0003815 nM were tested, with three replicates for each concentration. For CAMA-1 cells, nine concentration gradients ranging from 100 nM to 0.001526 nM were tested, also with three replicates for each concentration. For T-47D cells, nine concentration gradients ranging from 2 μM to 0.00512 nM were tested, with three replicates for each concentration. Each experiment was conducted twice independently.
The T-47D cells were treated with starvation medium for three days, followed by trypsin digestion, centrifugation, resuspension, and counting. Cell suspensions were prepared using the corresponding culture medium, and 40 μL of the suspension was added to each well of a 384-well plate. The plate was then incubated at 37° C. in a cell incubator with 5% CO2. The test compound of formula (I) was dissolved in DMSO to an initial concentration of 400 μM and subjected to a 5-fold serial dilution to achieve nine different concentrations. After overnight incubation, the diluted compound was further diluted with the corresponding cell culture medium. The resulting mixture was transferred to the respective wells of the cell plate, starting with a final concentration of 2 μM, followed by a 5-fold serial dilution to achieve nine concentrations. The positive control wells contained 2 μM fulvestrant, and 1 nM estradiol was added to the entire plate. The plate was mixed, centrifuged, and incubated at 37° C. in a cell incubator with 5% CO2 for the specified number of days according to the above table.
After incubation for the specified time, the cell culture plate was removed, and the CTG reagent was added. […] The readings were taken using the Envision multi-label analyzer. […]

HCC1428 cells = assay: HCC1428 cell proliferation inhibition assay (CTG); settings: Homo sapiens, HCC1428, 168 h, 7 days
Description: (§1) (5) HCC1428 and MDA-MB-134VI Cell Proliferation Inhibition Assay
(§2) The initial concentration of the compound of formula (I) was set at 200 nM, followed by 4-fold serial dilutions to achieve ten concentration gradients.
• 1) HCC1428 cells were cultured in RPMI 1640 complete growth medium containing 10% FBS and 1% PenStrep. • 2) When the cells in a T75 culture flask reached 80-90% cell fusion, they were digested with trypsin and collected. The cell passages used were the seventh generation for the first independent experiment and the thirteenth generation for the second independent experiment. • 3) The cells were centrifuged at 1000 rpm, resuspended in complete medium, and counted. The cell densities were 1.30×10^6 cells/mL for the first experiment and 9.50×10^5 cells/mL for the second experiment, with viability both exceeding 95%. • 4) Cell suspensions were prepared in complete medium at a density of 1.25×10^4 cells/mL for both experiments. […] 100 μL of CellTiter-Glo® reagent was added to each well. The plate was incubated at room temperature in the dark for 30 minutes. • 8) Luminescence values were read using a BMG plate reader.
(§3) The IC50 (half-maximal inhibitory concentration) of the compound was obtained using the following nonlinear fitting formula: […]

MDA-MB-134VI cells = assay: MDA-MB-134VI cell proliferation inhibition assay (CTG); settings: Homo sapiens, 240 h, 10 days
Description: as §1, §2
• 1) MDA-MB-134VI cells were cultured in DMEM complete growth medium containing 20% FBS and 1% PenStrep. • 2) When the cells in a T75 culture flask reached 80-90% cell fusion, they were digested with trypsin and collected. The cell passages used were the eighth generation for the first independent experiment and the sixth generation for the second independent experiment. • 3) The cells were centrifuged at 1000 rpm, resuspended in complete medium, and counted. The cell densities were 3.60×10^6 cells/mL for the first experiment and 1.93×10^6 cells/mL for the second experiment, with viability both exceeding 95%. • 4) Cell suspensions were prepared in complete medium at a density of 4.00×10^4 cells/mL for both experiments. […] 100 μL of CellTiter-Glo® reagent was added to each well. The plates were incubated at room temperature in the dark for 30 minutes. • 8) Luminescence values were read using a BMG plate reader.
as §3

FCCCN1CC[C@H](Nc2cnc(C3=C(CC(F)(F)F)CCCc4c3ccc3[nH]nc(F)c43)cn2)C1 [Compound of formula (I)]
IC50 (T-47D cells; First experiment): 1.98 nM | IC50 (T-47D cells; Mean ± SD): 2.35 ± 0.37 nM | IC50 (T-47D cells; Second experiment): 2.71 nM | IC50 (HCC1428 cells; First experiment): 0.49 nM | IC50 (HCC1428 cells; Mean ± SD): 1.55 ± 0.99 nM | IC50 (HCC1428 cells; Second experiment): 1.34 nM | IC50 (MDA-MB-134VI cells; First experiment): 0.12 nM | IC50 (MDA-MB-134VI cells; Mean ± SD): 0.31 ± 0.26 nM | IC50 (MDA-MB-134VI cells; Second experiment): 0.49 nM
